Test results from patent US20220251134A1, “2,4,7-SUBSTITUTED-7-DEAZA-2'-DEOXY-2'-FLUOROARABINOSYL NUCLEOSIDE AND NUCLEOTIDE PRO-DRUGS AND USES THEREOF” (Southern Research Institute, priority 2019, published 2022).
Where two headings read alike, the source gives them in different places. Values belong to the compound of their own block, whether it stands above or below them.

Tests used:
[1] = Evaluation of cell viability (MTS) in HepG2 2.2.15 cells; type: cell-based, human; conditions: human
Description: (§1) The HepG2 2.2.15 cell line is a stable human hepatoblastoma cell line that contains two copies of the HBV wild-type strain ayw1 genome and constitutively produces high levels of HBV. Cells were sub-cultured twice a week in Dulbecco's Modified Eagle's Medium (DMEM) supplemented with 10% FBS, 380 μg/mL G418, 2.0 mM L-Glutamine, 100 units/mL Penicillin, and 100 μg/mL Streptomycin. Total cell number and percent viability determinations were performed using a hemacytometer and trypan blue dye exclusion prior to each experiment set-up. Cell viability was always greater than 95% for experiment set-ups.
(§2) At experiment conclusion, MTS reagent (CellTiter®96 Reagent, Promega) reagent was added to culture wells (96 well microtiter plates) and permitted to incubate with cells for 2-4 hours at 37° C., 5% CO2. Each cell culture well was measured for MTS reagent reduction (color change, 490/650 nm) using a SpectraMax i3 plate reader (Molecular Devices).

[2] = system: HBV in HepG2 2.2.15 cells; experiment: HepG2 2.2.15 cell-based HBV replication assay (HBV virus yield, extracellular HBV DNA by real-time PCR); set-up: species or system HBV wild-type strain ayw1; conditions: for EC50 / EC90: Hepatitis B virus
Description: as §1, with “set-up.” for “set-up. Cell viability was always greater than 95% for experiment set-ups.”
The primary anti-HBV assay was performed as previously described (Korba and Milman (1991) Antiviral Res. 15: 217-228; Korba and Gerin (1992) Antiviral Res. 19: 55-70) with modifications to use real-time PCR (TaqMan-based) to measure extracellular HBV DNA virion-associated released from HepG2 2.2.15 cells. Antiviral compounds blocking any late step of viral replication such as transcription, translation, pre-genome encapsidation, reverse transcription, particle assembly and release can be identified and characterized using this cell line. Briefly, HepG2 2.2.15 cells were seeded in 96-well microtiter plates at 1.5×10^4 cells/well in Dulbecco's Modified Eagle's Medium supplemented with 2% FBS, 2.0 mM L-Glutamine, 100 units/mL Penicillin, and 100 μg/mL Streptomycin. […] Three days post treatment with test article (DPV), cell culture medium was replaced with fresh medium containing the appropriately diluted test compounds. Six days following the initial administration of the test compounds, the cell culture supernatant was collected, treated with pronase and then used in a real-time TaqMan-based PCR assay. The PCR-amplified HBV DNA was detected by measuring fluorescent signal resulting from the exonucleolytic degradation of a quenched fluorescent probe molecule that hybridizes to the amplified HBV DNA.

[3] = Cytotoxicity (TC50) in Vero cells; type: cell-based; conditions: African green monkey, Table 2
HSV-1 Strain HF = experiment: Antiviral activity against HSV-1 Strain HF in Vero cells; type: cell-based
HepG2 2.2.15 cells = experiment: Evaluation of cell viability (MTS) in HepG2 2.2.15 cells; type: cell-based, human; conditions: Table 3; HBV virus yield assay
Description: as §1, §2

[4] = HepG2 2.2.15 cells, Table 3, HBV virus yield assay
[5] = HepG2 2.2.15, Table 3, HBV virus yield assay, read-out: EC50
[6] = HepG2 2.2.15, Table 3, HBV virus yield assay, read-out: EC90
[7] = HepG2 2.2.15, Table 1, HBV in HepG2 2.2.15 cells, read-out: EC50
[8] = Table 1, HBV in HepG2 2.2.15 cells, read-out: EC90
[9] = Table 1, HBV in HepG2 2.2.15 cells

SMILES: CCC(CC)COC(=O)[C@H](C)NP(=O)(OC[C@H]1O[C@@H](n2ccc3c(N)nc(Cl)nc32)[C@@H](F)[C@@H]1O)Oc1ccccc1 (stereo partly drawn) [Compound 9a, 2-ethylbutyl ((((2R,3R,4S,5R)-5-(4-amino-2-chloro-7H-pyrrolo[2,3-d]pyrimidin-7-yl)-4-fluoro-3-hydroxytetrahydrofuran-2-yl)methoxy)(phenoxy)phosphoryl)-L-alaninate]
CC50 ([1]; Table 3, HBV virus yield assay): > 10 µM
EC50 ([2]; HepG2 2.2.15): 0.16 µM
EC90 ([2]; HepG2 2.2.15): 1.58 µM

SMILES: CC(C)COC(=O)[C@H](C)NP(=O)(OC[C@H]1O[C@@H](n2ccc3c(N)nc(Cl)nc32)[C@@H](F)[C@@H]1O)Oc1ccccc1 (single isomer, unassigned) [Compound 9d]
CC50 ([1]; Table 3, HBV virus yield assay): > 10 µM
EC50 ([2]; HepG2 2.2.15): 0.3 µM
EC90 ([2]; HepG2 2.2.15): > 10 µM

SMILES: CCCCCCCC/C=C\CCCCCCCC(=O)Nc1nc(Cl)nc2c1ccn2[C@@H]1O[C@H](CO)[C@@H](O)[C@@H]1F [Compound 12b, N-(2-chloro-7-((2R,3S,4R,5R)-3-fluoro-4-hydroxy-5-(hydroxymethyl)tetrahydrofuran-2-yl)-7H-pyrrolo[2,3-d]-pyrimidin-4-yl)oleamide]
CC50 [1, 4]: > 10 µM
EC50 [2, 5]: 0.13 µM
EC90 [2, 6]: > 10 µM

SMILES: COC(=O)[C@H](C)NP(=O)(OC[C@H]1O[C@@H](n2ccc3c(N)nc(Cl)nc32)[C@@H](F)[C@@H]1O)Oc1ccccc1 (single isomer, unassigned) [Compound 9f]
CC50 ([1]; Table 3, HBV virus yield assay): > 10 µM
EC50 ([2]; HepG2 2.2.15): 0.24 µM
EC90 ([2]; HepG2 2.2.15): > 10 µM

SMILES: CC(C)OC(=O)[C@H](C)NP(=O)(OC[C@H]1O[C@@H](n2ccc3c(N)nc(Cl)nc32)[C@@H](F)[C@@H]1O)Oc1ccccc1 (mixture of isomers) [Compound 9b, isopropyl ((((2R,3R,4S,5R)-5-(4-amino-2-chloro-7H-pyrrolo[2,3-d]pyrimidin-7-yl)-4-fluoro-3-hydroxytetrahydrofuran-2-yl)methoxy)(phenoxy)phosphoryl)-L-alaninate]
CC50 ([1]; Table 3, HBV virus yield assay): > 10 µM
EC50 ([2]; HepG2 2.2.15): 0.09 µM
EC90 ([2]; HepG2 2.2.15): 1.05 µM

IC50 (HSV-1 Strain HF; Table 2): 11.4 µM
SMILES: Nc1nc2c(ncn2COCCO)c(=O)[nH]1 [Acyclovir, acyclovir, reference compound]
CC50 [3]: > 100 µM
Selectivity Index (SI50) (TC50/IC50) (HSV-1 Strain HF; Table 2): >8.77

SMILES: CCCCCCCCCCCCCCCCCC(=O)Nc1nc(Cl)nc2c1ccn2[C@@H]1O[C@H](CO)[C@@H](O)[C@@H]1F [Compound 12c, N-(2-chloro-7-((2R,3S,4R,5R)-3-fluoro-4-hydroxy-5-(hydroxymethyl)tetrahydrofuran-2-yl)-7H-pyrrolo[2,3-d]pyrimidin-4-yl)stearamide]
CC50 [1, 4]: > 10 µM
EC50 [2, 5]: 0.53 µM
EC90 [2, 6]: > 10 µM

SMILES: CCOC(=O)[C@H](C)NP(=O)(OC[C@H]1O[C@@H](n2ccc3c(N)nc(Cl)nc32)[C@@H](F)[C@@H]1O)Oc1ccccc1 (mixture of isomers) [Compound 9e, ethyl ((((2R,3R,4S,5R)-5-(4-amino-2-chloro-7H-pyrrolo[2,3-d]pyrimidin-7-yl)-4-fluoro-3-hydroxytetrahydro-furan-2-yl)methoxy)-(phenoxy)phosphoryl)-L-alaninate]
CC50 ([1]; Table 3, HBV virus yield assay): > 10 µM
EC50 ([2]; HepG2 2.2.15): 0.14 µM
EC90 ([2]; HepG2 2.2.15): > 10 µM

SMILES: C[C@H](NP(=O)(OC[C@H]1O[C@@H](n2ccc3c(N)nc(Cl)nc32)C(F)C1O)Oc1ccccc1)C(=O)OCc1ccccc1 (single isomer, unassigned) [Compound 9c]
CC50 ([1]; Table 3, HBV virus yield assay): > 10 µM
EC50 ([2]; HepG2 2.2.15): 0.24 µM
EC90 ([2]; HepG2 2.2.15): > 10 µM

SMILES: CCCCCCCCCCCC(=O)Nc1nc(Cl)nc2c1ccn2[C@@H]1O[C@H](CO)[C@@H](O)[C@@H]1F [Compound 12a, N-(2-chloro-7-((2R,3S,4R,5R)-3-fluoro-4-hydroxy-5-(hydroxymethyl)tetrahydrofuran-2-yl)-7H-pyrrolo[2,3-d]pyrimidin-4-yl)dodecanamide]
CC50 [1, 4]: > 10 µM
EC50 [2, 5]: 0.08 µM
EC90 [2, 6]: 0.95 µM

SMILES: Nc1ccn([C@@H]2CS[C@H](CO)O2)c(=O)n1 [Compound 3TC, Lamivudine, reference compound]
CC50 ([1]; Table 1, HepG2 2.2.15 cells): > 2 µM
CC50 (HepG2 2.2.15 cells): > 2 µM
EC50 [2, 7]: 0.029 µM
EC50 [2, 5]: 0.029 µM
EC90 [2, 8]: 0.511 µM

SMILES: Nc1nc(Cl)nc2c1ccn2[C@@H]1O[C@H](CO)[C@@H](O)[C@@H]1F [Compound 5, (2R,3R,4S,5R)-5-(4-amino-2-chloro-7H-pyrrolo[2,3-d]pyrimidin-7-yl)-4-fluoro-2-(hydroxymethyl)tetrahydrofuran-3-ol]
CC50 ([1]; Table 1, HepG2 2.2.15 cells): > 10 µM
CC50 (HepG2 2.2.15 cells): > 10 µM
CC50 [3]: > 10 µM
EC50 [2, 7]: 0.07 µM
EC50 [2, 5]: 0.06 µM
EC90 [2, 8]: 1.28 µM
Activity [2, 9]: Hi
Selectivity Index (SI50) (CC50/EC50) [2, 9]: >167
IC50 (HSV-1 Strain HF; Human alphaherpesvirus 1, Table 2): 0.65 µM
Selectivity Index (SI50) (TC50/IC50) (HSV-1 Strain HF; Table 2): >15.4

SMILES: CCCC(CCC)C(=O)Nc1nc(Cl)nc2c1ccn2[C@@H]1O[C@H](CO)[C@@H](O)[C@@H]1F [Compound 12d, N-(2-chloro-7-((2R,3S,4R,5R)-3-fluoro-4-hydroxy-5-(hydroxymethyl)tetrahydrofuran-2-yl)-7H-pyrrolo[2,3-d]pyrimidin-4-yl)-2-propylpentanamide]
CC50 [1, 4]: > 10 µM
EC50 [2, 5]: 2.12 µM
EC90 [2, 6]: > 10 µM
